Laboratory results published in PMC3276110 (ACS Medicinal Chemistry Letters, 2011).

Tested on: multidrug-resistant Dd2 P. falciparum parasites
Assay: growth inhibition assay
Format: cell-based
Details: Plasmodium falciparum, DD2, 72 h, read-out: Dd2 GI50, Dd2 intraerythrocytic parasites, 72 h, DAPI

| SMILES | GI50 [nM] |
| --- | --- |
| C[C@@H]1CN([C@@H](C)CO)C(=O)c2cc(NC(=O)Nc3ccccc3)ccc2O[C@@H](C)CCCCO[C@H]1CN(C)C(=O)OC(C)(C)C [Compound 17] | > 1400 |
| C[C@@H]1CN(CCO)C(=O)c2cc(NC(=O)Nc3ccccc3)ccc2O[C@@H](C)CCCCO[C@H]1CN(C)S(=O)(=O)c1ccc(F)cc1 [Compound 30] | 630 |
